Assay [1] has as its system recombinant and non-replicative HIV virus coding for the firefly luciferase. The assay can be described thus: Inhibitory effect on HIV infection to MAGI-CCR5 cells (HIV-luciferase assay). Type of assay: cell-based. On the procedure:
The inhibitory activity of the compounds of the invention on HIV infection is measured on the human MAGI R5 recombinant cell line coexpressing the human CCR5 receptor and CD4 at their extracellular membrane. MAGI R5 cells are plated in black view plates at 10,000 cells/well and incubated with the appropriate concentrations of the compounds of the invention during 1 hour. This is followed by a 24 hours infection period with the recombinant and non-replicative HIV virus coding for the firefly luciferase (Bona et al., 2006, Antimicrob. Agents Chemother. 50: 3407-3417). The inhibitory effect of the tested compound on virus entry in MAGI R5 cells is measured by a reduction of luciferase signal (TopCount-NXT reader (Packard) and detection luciferase kit: Steadylite HTS assay kit (Perkin Elmer)) in the presence of the compound of the invention relative to the maximum signal obtained from cells infected with the virus without any added compound. The results of the tested compounds are reported as the concentration of compound required to inhibit 50% (IC50) of the maximum luciferase signal.

Assay [2] addresses T1, CCR5 receptor (Homo sapiens, UniProt P51681). The assay can be described thus: Calcium flux aequorin-based assay (agonist response). Type of assay: cell-based. On the set-up: expressed in transfected cells; host or cells: Chinese hamster ovary cells coexpressing apoaequorin and Gα16. The following applies: for EC50: Chinese hamster ovary cells expressing the CCR5 receptor, apoaequorin and Gα16, read-out: Aequorin/Ca++ assay EC50. On the procedure:
The aequorin assay uses the responsiveness of aequorin to intracellular calcium release induced by the activation of G Protein Coupled Receptors (Stables et al., 1997, Anal. Biochem. 252:115-126; Detheux et al., 2000, J. Exp. Med., 192 1501-1508). Briefly, Chinese hamster ovary cells expressing the CCR5 receptor are transfected to coexpress apoaequorin and Gα16. Cells are incubated with 5 μM Coelenterazine H (Promega) overnight at room temperature, and resuspended at a concentration of 0.1×10^6 cells/ml. Cells are then mixed with test agonist compounds and light emission by the aequorin is recorded with a luminometer (PDSS 6000-Hamamatsu) for 30 sec. Results are expressed as Relative Light Units (RLU). Controls include cells not expressing CCR5 in order to exclude possible non-specific effects of the test compound.
An agonist response is defined as an increase of light emission by aequorin corresponding to 10% or more of the light emitted by a reference sample of cells expressing CCR5 and treated with a the reference agonist ligand MIP-1β. The results of the tested compounds are reported as the concentration of compound required to reach 50% (EC50) of the maximum level of light emission induced by these compounds.
In general terms: Calcium flux is commonly read through the fluorescence of an indicator in the cells.

In assay [3] the target is T1, CCR5 receptor. The experiment in a line: 125I-MIP-1β binding competition assay. Details: expressed in transfected cells; host or cells: Chinese hamster ovary recombinant cells (membranes). As for the experimental part: The ability of the compounds of the invention to inhibit the binding of […] was assessed by an in vitro radioligand binding assay. Membranes were prepared from Chinese hamster ovary recombinant cells which express the human CCR5 receptor. The membranes were incubated with 0.05 nM ^125I-MIP-1β in a HEPES 25 mM/CaCl2 5 mM/MgCl2 1 mM buffer and various concentrations of the compounds of the invention. The amount of iodinated MIP-1β bound to the receptor was determined after filtration by the quantification of membrane associated radioactivity using the TopCount-NXT reader (Packard). Competition curves were obtained for compounds of the invention and the concentration of compound which displaced 50% of bound radioligand (IC50) was calculated

Assay [4] deals with recombinant and non-replicative HIV virus coding for the firefly luciferase. The assay can be described thus: Inhibitory effect on HIV infection to MAGI-CCR5 cells (HIV-luciferase assay). Type of assay: cell-based. The following applies: 10 μM of the compound; MAGI R5 cells (footnote b).
[5] abbreviates: Human immunodeficiency virus 1, MAGI-CCR5, read-out: HIV-luciferase assay IC50.
Setting [6] is: membranes of CHO cells expressing human CCR5, 0.05 nM 125I-MIP-1β, read-out: 125I-MIP-1β binding assay IC50.

Read-outs that look alike come from different tables or passages of the source.

As a reminder, the IC50 is the concentration that gives 50% inhibition.

T1 sequence (P51681 whole entry): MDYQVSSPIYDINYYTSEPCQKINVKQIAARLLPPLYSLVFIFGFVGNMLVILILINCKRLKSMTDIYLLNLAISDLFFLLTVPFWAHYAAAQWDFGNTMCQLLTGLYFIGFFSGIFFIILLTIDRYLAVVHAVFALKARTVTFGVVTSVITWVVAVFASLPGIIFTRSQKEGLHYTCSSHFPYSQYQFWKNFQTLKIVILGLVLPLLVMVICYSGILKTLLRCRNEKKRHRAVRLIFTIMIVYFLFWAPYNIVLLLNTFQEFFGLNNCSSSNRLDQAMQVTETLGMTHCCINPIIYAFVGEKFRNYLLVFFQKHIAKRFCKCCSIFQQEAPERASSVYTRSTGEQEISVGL

For `O=C(CC1CCN(CCN(c2ccccc2)c2ccccc2)CC1)Nc1ccc(F)cc1` [Compound 4], the results for the IC50 (in assay [1] (setting [5]); on CCR5 receptor [3] (setting [6])) were 2470 nM and 70.8 nM, respectively. Moreover, the EC50 on CCR5 receptor [2] was determined as 703 nM.

For the compound `O=C(CC1CCN(CCN(c2ccccc2)c2ccccc2)CC1)Nc1ccc(Cl)cc1` [Compound 6], the figures for the concentration for half-maximal inhibition (IC50) (in assay [1] (setting [5]); at CCR5 receptor [3] (setting [6])) were 2050 nM and 116 nM, respectively. Moreover, on CCR5 receptor [2], the EC50 is 1760 nM.

On to `Cc1ccc(NC(=O)CC2CCN(CCN(c3ccccc3)c3ccccc3)CC2)cc1` [Compound 8], for which the IC50 stood at 2160 nM in assay [1] (setting [5]) and 13.3 nM on CCR5 receptor [3] (setting [6]). Moreover, at CCR5 receptor [2], the EC50 was found to be 425 nM.

On to `O=C(CC1CCN(CCN(c2ccccc2)c2ccccc2)CC1)NCc1ccc(Cl)cc1` [Compound 15], for which the IC50 in assay [1] (setting [5]) is 1440 nM; on CCR5 receptor [3] (setting [6]), 106 nM. Also, the EC50 on CCR5 receptor [2] is 4410 nM.

`COc1ccc(CNC(=O)CC2CCN(CCN(c3ccccc3)c3ccccc3)CC2)cc1` [Compound 16]: in assay [4], the “level of inhibition of luciferase activity compared to the inhibition induced by Rantes at 100 nM” value is given as 79.6%^b. Besides, the EC50 on CCR5 receptor [2] came out at 764 nM. The concentration for half-maximal inhibition (IC50) on CCR5 receptor [3] (setting [6]) stood at 143 nM.

Consider `O=C(CC1CCN(CCN(c2ccccc2)c2ccccc2)CC1)NC1CCCCC1` [Compound 17], for which, in assay [4], the “level of inhibition of luciferase activity compared to the inhibition induced by Rantes at 100 nM” value came to 55.8%^b. For the same compound, on CCR5 receptor [2], the EC50 was 438 nM. Moreover, the IC50 on CCR5 receptor [3] (setting [6]) is 134 nM.

`CCCCc1ccc(NC(=O)CC2CCN(CCN(c3ccccc3)c3ccccc3)CC2)cc1` [Compound 27]: the “level of inhibition of luciferase activity compared to the inhibition induced by Rantes at 100 nM” value in assay [4] was 31.5%^b. Besides, the EC50 on CCR5 receptor [2] was determined as 2330 nM. For the same compound, the IC50 on CCR5 receptor [3] (setting [6]) turned out to be 167 nM.

In the case of `O=C(CC1CCN(CCN(c2ccccc2)c2ccccc2)CC1)NCc1ccccc1` [Compound 50], the IC50 in assay [1] (Human immunodeficiency virus 1, MAGI, read-out: IC50 (HIV infection of MAGI R5 cells)) amounted to 1600 nM; in assay [1] (setting [5]), 1600 nM; on CCR5 receptor [3] (setting [6]) it was 436 nM. Moreover, on CCR5 receptor [2] (10 μM of the compound, activity too low for accurate EC50 calculation (footnote a)), the “level of calcium/aequorin response compared to the calcium/aequorin response of MIP-1β at 100 nM” value was “+9.5%^a”.

Turning to `Cc1cc(NC(=O)CC2CCN([C@H](C)CN(c3ccccc3)S(=O)(=O)CC3CCC(F)(F)CC3)CC2)[nH]n1` [Compound 55], the IC50 on CCR5 receptor [3] (range over the group, read-out: IC50 (125I-MIP-1β binding), range stated in text for the listed compounds) lay in the range of 13.3 to 436 nM.

As for `COc1ccc(NC(=O)CC2CCN(CC[C@H](NC(=O)C3CCC(F)(F)CC3)c3ccccc3)CC2)cc1` [Compound 69], in assay [1] (setting [5]), the concentration for half-maximal inhibition (IC50) is 2.7 nM. The EC50 on CCR5 receptor [2] is 36.4 nM.

In the case of `COc1ccc(NC(=O)CC2CCN([C@H](C)CN(c3ccccc3)S(=O)(=O)Cc3ccccc3)CC2)cc1` [Compound 96], the figures for the half-inhibitory concentration (IC50) (in assay [1] (setting [5]); at CCR5 receptor [3] (setting [6])) were 3.9 nM and 0.4 nM, respectively. Also, the EC50 at CCR5 receptor [2] was 70.6 nM.

For `C[C@H](CN(c1ccccc1)S(=O)(=O)Cc1ccccc1)N1CCC(CC(=O)Nc2ccc(F)cc2F)CC1` [Compound 98], the IC50 in assay [1] (setting [5]) came to 3.6 nM; on CCR5 receptor [3] (setting [6]) it was 0.4 nM. Further, the EC50 at CCR5 receptor [2] amounted to 60.5 nM.

(Values after patent publication US20090048291A1, “Novel Piperidine-4-Acetic Acid Derivatives and Their Use” (Euroscreen S.A., priority 2007, published 2009).)
